Patent US10464920B2, “Vicinal primary diamines associated with metal and/or free radical chelation motifs, and active against carbonyl and oxidative stress, and use thereof” (UNIVERSITE AMIENS PICARDIE JULES VERNE, priority 2015, dated 2019)

What was measured:
[1] = test system: murine endothelial brain cells (bEnd.3); experiment: Cytotoxicity, cellular viability (CCK-8/WST-8) on bEnd.3; format: cell-based; conditions: mouse
Method: The cellular viability is evaluated by a colorimetric method based on the detection of the conversion of a salt of the tetrazolium (WST-8) by the metabolically active cells (CCK-8 kit, Sigma, Lyons, France) (Molecules, 2014, 19(8), 12048-12064; J. Pharmacol. Toxicol. Methods., 2007, 56(1), 58-62). Living cells have mitochondrial dehydrogenases that reduce the WST-8 (2-(2-methoxy-4-nitrophenyl)-3-(4-nitrophenyl)-5-(2,4-disulfophenyl)-2H-tetrazolium), monosodium salt) to formazan of an orange colour, which dissolves directly in the culture medium in the presence of 1-Methoxy PMS (1-methoxy-5-methylphenazinium methyl sulphate). After an incubation for 1 h at 37° C., the absorbance of the formazan is measured at 450 nm. The absorbance is directly proportional to the number of living cells.
Briefly, the cells are inoculated in 96-well plates at a rate of 5.10^3 cells per well in 100 μL of the suitable medium until subconfluence. The cells are then washed with D-PBS, then treated with various concentrations (10 μM, 100 μM) of the products to be tested in triplicates for 24 and 48 h. A positive control is carried out with 10% of DMSO. The CCK-8 (10 μL) solution is then added to each well for an incubation for 1 h at 37° C. The measurement of the absorbance is taken at 450 nm using a Perkin Elmer 2103 Envision® microplate reader.
The viability of the cells is expressed as a % of the control (untreated cells) by the mean±standard deviation of triplicates forming a representative experiment or of three independent experiments conducted in triplicate.

[2] = ORACFL test (Oxygen Radical Absorbance Capacity) using fluorescein/AAPH; format: physicochemical; conditions: compounds at 10 μM; for ORACFL: mean ± SEM of three independent experiments in triplicate
Method: The antioxidant properties of the compounds according to the invention were evaluated using a ORACFL test using fluorescein (J. Agric. Food Chem., 2004 52, 48-54; J. Agric. Food Chem., 2005, 53, 4290-4302). As such, peroxide radicals, generated in the presence of AAPH (2,2′-azobis(2-methylpropionamidine)dihydrochloride) at 37° C., react with this fluorescent sensor in order to give a non-fluorescent product. The protective effect of the test compounds can then be determined by following the decay curve of the fluorescence of the fluorescein over time and be measuring the area under the curve (AUC) of the sample in relation to that of a control corresponding to an absence of antioxidant.
The trolox (6-hydroxy-2,5,7,8-tetramethylchroman-2-carboxylic acid), a water-soluble analogue of vitamin E, is used as a standard for calculating the antioxidant capacity (ORACFL) of the compounds tested at 10 μM, expressed in […] of tested compound. This value is as such obtained using the straight-line calibration equation giving the area under the curve according to the various concentrations of trolox (Bioorg. Med. Chem., 2015, 23, 1135-1148) (FIG. 11).
A solution of fluorescein (FL) (12 nM; 150 μL) is introduced into a black 96-well plate (Dutscher, Brumath, France). The compounds to be tested (1-20 μM; 25 μL) or trolox (1-50 μM; 25 μL) dissolved in D-PBS are added into each well. After equilibration of the plate during an incubation at 37° C. for a minimum of 30 min, the radical reactions are initiated using a solution of AAPH prepared extemporaneously (30 mM; 25 μL). The fluorescence (λEx: 485 nm; λEm: 520 nm) is measured every 90 seconds for 60 cycles using a temperature-controlled Tecan Infinite® 200 PRO microplate reader (measurements taken in triplicates during three independent experiments).

[3] = Cu2+ chelating properties by UV/Visible light spectrophotometry (murexide); format: physicochemical; conditions: 0.02-2 mM compound, CuSO4 0.25 mM solution, Hexamine buffer pH 5, RT 10 min
Method: J. Mol. Sci., 2009, 10, 5485-5497; Molecules, 2012, 17, 13457-13472). […] A Hexamine buffer 0.01 M/KCl 0.01 M (qsp 200 mL) of which the pH is adjusted to 5 using a solution of HCl 1N is first of all prepared. Solutions of CuSO4.5H2O at 0.5 mM (20 mL) and 0.25 mM (100 mL) are then carried out in this buffer, with the first being used to obtain the calibration curve. An aqueous solution of murexide at 1 mM must also be prepared extemporaneously (10 mL) as well as a stock solution of the compounds to be tested at 4.2 mM in Hexamine buffer 0.01 M/KCl 0.01 M or in a buffer and MeOH 75/25 mixture (6.2 mL). Various concentrations of the compounds to be tested are distributed in Hexamine buffer 0.01M/KCl 0.01M (pH=5) (Table 5) or in a buffer and MeOH 75/25 mixture in tubes for hemolysis (Table 6). The solution of CuSO4.5H2O at 0.25 mM (1 mL) is then added and this is allowed to incubate at RT for 10 min. Finally, the aqueous solution of murexide at 1 mM (0.1 mL) is introduced and is again allowed to incubate at RT for 1 min. The absorbances are then measured at 485 nm ([…]) and 520 nm ([…]) by UV/Visible light spectrophotometry (V-650 JASCO spectrometer) (measurements taken in triplicates). […] After introduction of the aqueous solution of murexide at 1 mM (0.1 mL), this is allowed to incubate at RT for 1 min and the absorbances are finally measured at 485 nm ([…]) and 520 nm ([…]) by UV/Visible light spectrophotometry.

Structure (SMILES) | viability of the cells as a percentage of the untreated cells ([1]; 24 h, 10 μM) [%] | viability of the cells as a percentage of the untreated cells ([1]; 24 h, 100 μM) [%] | viability of the cells as a percentage of the untreated cells ([1]; 48 h, 10 μM) [%] | viability of the cells as a percentage of the untreated cells ([1]; 48 h, 100 μM) [%] | ORACFL [2] [μmol TE/μmol] | Cu^2+ chelating properties (complexation of the Cu^2+) [3] | antioxidant capacity (ORACFL), in words [2]
COc1cc(/C=C/C(=O)N2CCN(C(=O)CCC(N)CN)CC2)ccc1O (stereo not drawn) [Compound 29a, (E)-4,5-diamino-1-(4-(3-(4-hydroxy-3-methoxyphenyl)acryloyl)piperazin-1-yl)pentan-1-one] | 98 | 87 | 90 | 83 | 2.05 ± 0.23 | poor results | –
NCC(N)CCCNC(=O)CCn1cccc(O)c1=O (stereo not drawn) [Compound 37a, N-(4,5-diaminopentyl)-3-(3-hydroxy-2-oxopyridin-1(2H)-yl)propanamide] | 97 | 103 | 99 | 93 | 0.58 ± 0.02 | – | –
NCC(N)CCCCNC(=O)CCn1cccc(O)c1=O (stereo not drawn) [Compound 37b, N-(5,6-diaminohexyl)-3-(3-hydroxy-2-oxopyridin-1(2H)-yl)propanamide] | 126 | 115 | 101 | 100 | 0.99 ± 0.09 | most active | –
NCC(N)CCC(=O)NCCCn1cccc(O)c1=O (stereo not drawn) [Compound 37c, 4,5-diamino-N-(3-(3-hydroxy-2-oxopyridin-1(2H)-yl)propyl)pentanamide] | 99 | 85 | 86 | 84 | 1.03 ± 0.03 | – | most active
NCC(N)CCCCNC(=O)c1cc(O)c(O)c(O)c1 (stereo not drawn) [Compound 30b, N-(5,6-diaminohexyl)-3,4,5-trihydroxybenzamide] | 93 | 99 | 92 | 87 | 2.59 ± 0.35 | most active | most active
